Source: ChEMBL document CHEMBL5465560, “Selectivity Literature for EUbOPEN Chemogenomic Library” (2024)

Experiments:
[1] = target: Casein kinase I isoform gamma-3 (Homo sapiens) (UniProt Q9Y6M4); test: Selectivity interaction (KinomeScan (DiscoverX)) EUB0000666a CSNK1G3; conditions: at 10 µM
[2] = target: Rho-associated protein kinase 1 (Homo sapiens) (UniProt Q13464); test: Selectivity interaction (KinomeScan (DiscoverX)) EUB0000666a ROCK1; conditions: at 10 µM
[3] = target: T1, Histone-arginine methyltransferase CARM1 (Homo sapiens) (UniProt Q86X55); conditions: KMS-12-BM, at 3 µM
T1 sequence (whole entry): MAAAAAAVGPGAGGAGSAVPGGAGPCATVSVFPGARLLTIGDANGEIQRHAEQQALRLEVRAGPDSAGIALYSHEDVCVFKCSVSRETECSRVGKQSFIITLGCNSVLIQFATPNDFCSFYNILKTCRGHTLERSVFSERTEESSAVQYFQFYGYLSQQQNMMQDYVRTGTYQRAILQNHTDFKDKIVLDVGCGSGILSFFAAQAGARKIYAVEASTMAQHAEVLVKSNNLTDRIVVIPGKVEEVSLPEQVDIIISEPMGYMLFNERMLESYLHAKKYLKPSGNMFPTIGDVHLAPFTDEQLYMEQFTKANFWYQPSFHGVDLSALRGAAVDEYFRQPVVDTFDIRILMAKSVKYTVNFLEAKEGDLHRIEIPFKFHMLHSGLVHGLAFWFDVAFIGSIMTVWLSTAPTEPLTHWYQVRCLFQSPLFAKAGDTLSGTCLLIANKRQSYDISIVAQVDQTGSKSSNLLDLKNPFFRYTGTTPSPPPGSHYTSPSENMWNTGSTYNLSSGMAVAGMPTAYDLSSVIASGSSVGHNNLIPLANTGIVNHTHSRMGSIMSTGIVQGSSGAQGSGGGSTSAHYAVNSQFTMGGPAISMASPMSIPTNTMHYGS

[4] = target: Serine/threonine-protein kinase PAK 1 (Homo sapiens) (UniProt Q13153); test: Selectivity interaction (Kinase panel (DSF assay)) EUB0001558a PAK1
Serine/threonine-protein kinase PAK 1 (Homo sapiens), sequence (Q13153 whole entry): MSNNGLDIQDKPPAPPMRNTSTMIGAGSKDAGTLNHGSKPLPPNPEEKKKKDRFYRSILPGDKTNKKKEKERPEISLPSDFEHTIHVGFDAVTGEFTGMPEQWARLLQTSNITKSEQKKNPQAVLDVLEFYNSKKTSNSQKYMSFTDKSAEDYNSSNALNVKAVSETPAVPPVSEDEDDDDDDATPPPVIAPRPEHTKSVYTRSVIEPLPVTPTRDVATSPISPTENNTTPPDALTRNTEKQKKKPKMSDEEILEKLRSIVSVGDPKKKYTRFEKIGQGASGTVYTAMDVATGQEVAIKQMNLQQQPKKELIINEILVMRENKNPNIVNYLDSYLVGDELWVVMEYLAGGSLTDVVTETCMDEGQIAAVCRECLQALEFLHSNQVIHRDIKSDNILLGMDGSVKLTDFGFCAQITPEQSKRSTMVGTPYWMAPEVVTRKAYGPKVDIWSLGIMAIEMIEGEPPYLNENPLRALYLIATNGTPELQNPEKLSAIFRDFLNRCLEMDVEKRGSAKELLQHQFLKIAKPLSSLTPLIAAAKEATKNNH

[5] = target: Tyrosine-protein kinase Fyn (Homo sapiens) (UniProt P06241); test: Selectivity interaction (ActivX KiNativ screen (kinase selectivity in THP-1 cell lysates)) EUB0000639a FYN; format: subcellular; conditions: lysate
Tyrosine-protein kinase Fyn (Homo sapiens), sequence (P06241 2-537 limits assumed): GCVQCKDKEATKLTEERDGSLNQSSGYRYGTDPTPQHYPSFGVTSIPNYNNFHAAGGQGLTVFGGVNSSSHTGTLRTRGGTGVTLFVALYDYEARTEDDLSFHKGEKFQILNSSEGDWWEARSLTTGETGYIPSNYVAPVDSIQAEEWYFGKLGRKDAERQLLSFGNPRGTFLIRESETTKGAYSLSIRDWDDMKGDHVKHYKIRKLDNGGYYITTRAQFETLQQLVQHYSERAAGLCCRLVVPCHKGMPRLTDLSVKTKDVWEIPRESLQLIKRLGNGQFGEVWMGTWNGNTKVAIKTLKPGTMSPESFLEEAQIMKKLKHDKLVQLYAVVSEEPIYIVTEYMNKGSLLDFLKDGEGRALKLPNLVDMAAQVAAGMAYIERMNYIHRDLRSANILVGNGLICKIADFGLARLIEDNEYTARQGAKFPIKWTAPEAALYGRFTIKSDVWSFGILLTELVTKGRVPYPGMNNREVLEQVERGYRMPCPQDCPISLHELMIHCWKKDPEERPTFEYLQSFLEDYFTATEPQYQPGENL

[6] = target: Serine/threonine-protein kinase SIK3 (Homo sapiens) (UniProt Q9Y2K2); test: Selectivity interaction (KinomeScan (DiscoverX)) EUB0000595a SIK3; conditions: at 10 µM
[7] = target: Mitogen-activated protein kinase 6 (Homo sapiens) (UniProt Q16659); test: Selectivity interaction (KinomeScan (DiscoverX)) EUB0000595a MAPK6; conditions: at 10 µM
Mitogen-activated protein kinase 6 (Homo sapiens), sequence (Q16659 whole entry): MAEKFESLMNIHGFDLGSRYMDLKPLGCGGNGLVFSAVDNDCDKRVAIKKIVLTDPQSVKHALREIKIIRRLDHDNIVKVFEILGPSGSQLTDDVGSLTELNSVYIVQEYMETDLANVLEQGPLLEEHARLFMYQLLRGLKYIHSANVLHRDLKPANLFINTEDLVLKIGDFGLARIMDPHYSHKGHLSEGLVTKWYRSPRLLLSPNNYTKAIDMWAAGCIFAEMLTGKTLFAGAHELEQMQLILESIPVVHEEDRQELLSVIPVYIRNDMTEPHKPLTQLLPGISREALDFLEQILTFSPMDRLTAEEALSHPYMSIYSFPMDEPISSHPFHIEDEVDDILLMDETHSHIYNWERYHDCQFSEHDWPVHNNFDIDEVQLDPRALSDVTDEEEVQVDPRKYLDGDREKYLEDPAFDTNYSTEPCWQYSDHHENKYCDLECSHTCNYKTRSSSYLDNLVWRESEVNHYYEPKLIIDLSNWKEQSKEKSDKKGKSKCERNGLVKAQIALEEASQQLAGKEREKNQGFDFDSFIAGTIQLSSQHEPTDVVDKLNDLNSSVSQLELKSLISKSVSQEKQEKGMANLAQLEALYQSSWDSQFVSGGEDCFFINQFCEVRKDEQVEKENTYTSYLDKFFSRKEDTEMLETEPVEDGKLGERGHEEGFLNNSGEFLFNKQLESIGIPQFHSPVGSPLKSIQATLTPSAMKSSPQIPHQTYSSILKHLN

[8] = target: T2, Ephrin type-B receptor 4 (Homo sapiens) (UniProt P54760); test: Selectivity interaction (KinomeScan (DiscoverX)) EUB0000045b EPHB4
T2 sequence (whole entry): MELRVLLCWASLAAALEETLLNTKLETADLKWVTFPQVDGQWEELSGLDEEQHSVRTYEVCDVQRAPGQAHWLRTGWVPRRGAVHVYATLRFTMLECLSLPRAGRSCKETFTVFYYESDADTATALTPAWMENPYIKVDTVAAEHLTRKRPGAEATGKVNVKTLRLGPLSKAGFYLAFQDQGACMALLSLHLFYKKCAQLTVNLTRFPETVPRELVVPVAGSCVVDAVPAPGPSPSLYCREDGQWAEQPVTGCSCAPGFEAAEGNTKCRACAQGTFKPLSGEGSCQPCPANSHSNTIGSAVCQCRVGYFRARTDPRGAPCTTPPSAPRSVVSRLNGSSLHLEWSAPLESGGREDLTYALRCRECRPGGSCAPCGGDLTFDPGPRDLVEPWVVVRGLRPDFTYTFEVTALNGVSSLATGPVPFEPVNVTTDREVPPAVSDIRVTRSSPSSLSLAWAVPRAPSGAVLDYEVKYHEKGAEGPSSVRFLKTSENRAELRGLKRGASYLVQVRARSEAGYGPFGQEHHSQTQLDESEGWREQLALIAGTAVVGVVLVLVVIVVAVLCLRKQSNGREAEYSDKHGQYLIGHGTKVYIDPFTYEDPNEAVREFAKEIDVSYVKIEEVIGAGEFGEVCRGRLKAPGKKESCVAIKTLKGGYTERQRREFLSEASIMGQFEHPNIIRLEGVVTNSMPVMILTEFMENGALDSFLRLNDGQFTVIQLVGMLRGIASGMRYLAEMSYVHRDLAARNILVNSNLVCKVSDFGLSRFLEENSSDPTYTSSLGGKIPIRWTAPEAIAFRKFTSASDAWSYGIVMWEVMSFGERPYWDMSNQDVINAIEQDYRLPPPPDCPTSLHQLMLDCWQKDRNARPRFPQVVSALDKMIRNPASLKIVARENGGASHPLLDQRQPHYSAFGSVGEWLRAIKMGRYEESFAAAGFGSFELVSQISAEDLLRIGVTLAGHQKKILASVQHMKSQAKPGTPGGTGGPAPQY

[9] = target: T3, Phosphatidylinositol 5-phosphate 4-kinase type-2 alpha (Homo sapiens) (UniProt P48426); test: Selectivity interaction (ActivX KiNativ screen (ex vivo kinase selectivity in human PBMCs)) EUB0001619a PIP4K2A; format: cell-based; conditions: PBMC, at 1 µM
T3 sequence (whole entry): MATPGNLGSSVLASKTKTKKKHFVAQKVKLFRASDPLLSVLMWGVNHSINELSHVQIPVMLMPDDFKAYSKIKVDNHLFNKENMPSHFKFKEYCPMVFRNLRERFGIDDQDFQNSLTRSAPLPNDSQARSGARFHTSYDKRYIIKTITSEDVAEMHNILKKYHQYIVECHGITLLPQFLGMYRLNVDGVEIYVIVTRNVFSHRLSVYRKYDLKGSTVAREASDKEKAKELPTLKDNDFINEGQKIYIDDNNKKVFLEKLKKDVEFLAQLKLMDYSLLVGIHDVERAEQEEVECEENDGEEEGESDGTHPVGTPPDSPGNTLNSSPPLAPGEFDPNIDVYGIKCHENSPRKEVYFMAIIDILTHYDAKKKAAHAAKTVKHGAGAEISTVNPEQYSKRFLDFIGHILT

[10] = target: Platelet-derived growth factor receptor beta (Homo sapiens, UniProt P09619); test: Selectivity interaction (Kinase panel (Z-LYTE Assay)) EUB0001632a PDGFRB; conditions: at 10 µM
Platelet-derived growth factor receptor beta, sequence (P09619 whole entry): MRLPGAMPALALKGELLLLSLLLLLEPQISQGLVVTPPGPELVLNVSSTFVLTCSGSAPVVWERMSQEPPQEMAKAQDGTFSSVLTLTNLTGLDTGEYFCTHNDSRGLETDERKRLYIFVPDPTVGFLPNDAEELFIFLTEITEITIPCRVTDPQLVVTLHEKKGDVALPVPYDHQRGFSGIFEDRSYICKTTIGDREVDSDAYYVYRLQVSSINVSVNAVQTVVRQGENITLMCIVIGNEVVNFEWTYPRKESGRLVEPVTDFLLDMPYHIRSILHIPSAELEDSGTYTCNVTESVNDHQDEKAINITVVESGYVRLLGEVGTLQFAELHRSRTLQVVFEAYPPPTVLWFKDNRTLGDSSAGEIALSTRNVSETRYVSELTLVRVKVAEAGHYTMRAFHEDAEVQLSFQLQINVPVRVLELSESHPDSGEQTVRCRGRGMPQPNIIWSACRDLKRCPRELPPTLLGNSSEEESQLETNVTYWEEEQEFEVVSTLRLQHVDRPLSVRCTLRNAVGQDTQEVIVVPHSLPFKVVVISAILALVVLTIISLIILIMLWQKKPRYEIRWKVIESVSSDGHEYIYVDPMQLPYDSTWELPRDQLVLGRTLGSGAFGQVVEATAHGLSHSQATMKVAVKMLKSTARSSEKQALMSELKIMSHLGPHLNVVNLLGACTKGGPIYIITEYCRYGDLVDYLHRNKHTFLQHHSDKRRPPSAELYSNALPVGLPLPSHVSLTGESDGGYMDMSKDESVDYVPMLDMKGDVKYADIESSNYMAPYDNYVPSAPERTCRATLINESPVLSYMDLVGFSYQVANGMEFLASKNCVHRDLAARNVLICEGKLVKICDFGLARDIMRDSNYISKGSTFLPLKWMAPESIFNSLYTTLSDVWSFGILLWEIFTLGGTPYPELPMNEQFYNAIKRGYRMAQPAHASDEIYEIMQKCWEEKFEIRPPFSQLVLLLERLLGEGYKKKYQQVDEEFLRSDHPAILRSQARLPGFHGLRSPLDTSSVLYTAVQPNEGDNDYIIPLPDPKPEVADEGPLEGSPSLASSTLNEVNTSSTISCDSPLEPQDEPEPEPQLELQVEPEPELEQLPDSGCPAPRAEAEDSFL

Casein kinase I isoform gamma-3 (Homo sapiens), sequence (Q9Y6M4 whole entry, looked up, canonical isoform): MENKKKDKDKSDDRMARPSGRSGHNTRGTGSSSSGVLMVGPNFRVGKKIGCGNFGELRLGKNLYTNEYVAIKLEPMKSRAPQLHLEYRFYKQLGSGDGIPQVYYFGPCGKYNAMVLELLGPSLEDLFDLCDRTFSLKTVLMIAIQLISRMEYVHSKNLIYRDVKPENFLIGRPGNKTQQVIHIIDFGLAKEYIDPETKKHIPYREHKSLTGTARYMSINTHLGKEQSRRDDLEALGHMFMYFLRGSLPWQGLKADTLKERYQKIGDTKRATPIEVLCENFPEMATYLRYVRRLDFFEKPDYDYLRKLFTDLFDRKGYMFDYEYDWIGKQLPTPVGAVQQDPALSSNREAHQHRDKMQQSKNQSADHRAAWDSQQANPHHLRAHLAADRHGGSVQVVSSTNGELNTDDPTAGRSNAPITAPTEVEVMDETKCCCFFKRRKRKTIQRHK
Rho-associated protein kinase 1 (Homo sapiens), sequence (Q13464 2-1354 limits assumed): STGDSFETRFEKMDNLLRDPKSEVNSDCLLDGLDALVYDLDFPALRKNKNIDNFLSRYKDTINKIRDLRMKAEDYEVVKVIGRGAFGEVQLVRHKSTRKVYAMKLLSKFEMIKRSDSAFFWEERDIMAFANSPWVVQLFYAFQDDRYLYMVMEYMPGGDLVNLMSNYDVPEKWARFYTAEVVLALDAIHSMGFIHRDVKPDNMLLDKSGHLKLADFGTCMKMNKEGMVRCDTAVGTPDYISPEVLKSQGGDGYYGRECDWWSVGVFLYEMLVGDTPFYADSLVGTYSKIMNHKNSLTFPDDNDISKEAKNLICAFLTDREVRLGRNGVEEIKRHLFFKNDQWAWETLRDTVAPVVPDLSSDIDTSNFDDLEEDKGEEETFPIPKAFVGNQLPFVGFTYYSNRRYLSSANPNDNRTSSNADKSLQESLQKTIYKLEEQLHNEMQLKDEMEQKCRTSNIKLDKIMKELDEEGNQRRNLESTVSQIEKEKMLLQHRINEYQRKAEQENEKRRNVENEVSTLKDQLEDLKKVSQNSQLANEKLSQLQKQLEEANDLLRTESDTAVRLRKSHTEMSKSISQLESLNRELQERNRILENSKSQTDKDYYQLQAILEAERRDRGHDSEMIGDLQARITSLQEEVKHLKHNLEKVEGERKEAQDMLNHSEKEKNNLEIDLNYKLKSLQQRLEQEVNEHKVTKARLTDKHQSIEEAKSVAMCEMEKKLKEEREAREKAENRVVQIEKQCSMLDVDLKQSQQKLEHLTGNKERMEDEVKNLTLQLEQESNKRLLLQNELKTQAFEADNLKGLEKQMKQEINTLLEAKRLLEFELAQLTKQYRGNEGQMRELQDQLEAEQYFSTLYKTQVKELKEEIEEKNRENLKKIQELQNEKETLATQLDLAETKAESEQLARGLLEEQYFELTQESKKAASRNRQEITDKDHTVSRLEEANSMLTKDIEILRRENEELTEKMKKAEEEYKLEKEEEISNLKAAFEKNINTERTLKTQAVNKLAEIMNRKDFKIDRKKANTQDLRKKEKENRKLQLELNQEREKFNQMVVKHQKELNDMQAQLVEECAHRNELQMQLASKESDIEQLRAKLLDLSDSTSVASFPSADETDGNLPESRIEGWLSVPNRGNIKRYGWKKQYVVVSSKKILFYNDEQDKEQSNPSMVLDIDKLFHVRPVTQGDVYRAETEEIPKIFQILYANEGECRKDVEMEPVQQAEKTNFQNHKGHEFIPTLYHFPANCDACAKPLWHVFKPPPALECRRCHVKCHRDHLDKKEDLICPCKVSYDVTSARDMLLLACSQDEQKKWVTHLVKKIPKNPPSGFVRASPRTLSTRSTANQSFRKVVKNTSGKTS

SMILES: O=C(NOC[C@H](O)CO)c1ccc(F)c(F)c1Nc1ccc(I)cc1F
- % of control [1]: 67%
- % of control [2]: 100%

SMILES: CNCCN1CCC(c2cc(CN(C)C(=O)c3cccc(Oc4ccccc4)c3)ccn2)CC1
- % of growth rate [3]: -8.2%

SMILES: CC(C)(O)[C@H](F)CN1Cc2cc(NC(=O)c3cnn4cccnc34)c(N3CCOCC3)cc2C1=O
- dTM [4]: -0.1 K

SMILES: CC[C@@H]1[C@H](F)C(=O)N[C@@H]1COc1nccc2cc(C(N)=O)c(OC)cc12 [ZIMLOVISERTIB]
- % of inhibition ([5]; at 0.01 µM): -12.7%
- % of inhibition ([5]; at 0.04 µM): -16.1%
- % of inhibition ([5]; at 0.2 µM): -5.4%
- % of inhibition ([5]; at 1 µM): -3.3%
- % of inhibition ([5]; at 5 µM): -18.6%

SMILES: COCC(=O)NC/C=C/c1ccc2ncnc(Nc3ccc(Oc4ccc(C)nc4)c(C)c3)c2c1 [CP-724714]
- % of control [6]: 76%
- % of control [7]: 100%

SMILES: C=CC(=O)Nc1cc(-n2c(=O)ccc3cnc4ccc(-c5ccc(NS(C)(=O)=O)cc5)cc4c32)ccc1C
- % of control ([8]; at 1 µM): 100%
- % of control ([8]; at 10 µM): 100%

SMILES: N#Cc1cccc(-c2c[nH]c3ncnc(N4CCOCC4)c23)c1
- % of inhibition [9]: 16%

SMILES: Cn1cc(-n2cnc3c(NCc4nc5cc(Cl)c(Cl)cc5[nH]4)nc(N4CCOCC4)nc32)cn1
- % of control [10]: 12.7%
